GI50 and TGI data for 17 molecules are collected here from PubChem BioAssay (NCI).

Test systems include HOP-92 NSCLC; NCI-H226 lung; OVCAR-3 ovarian; OVCAR-5 ovarian; RXF 393 renal; DU-145 prostate; MCF7 breast; NCI-H522 lung; NCI/ADR-RES ovarian; MDA-N.
Assay in all cases: NCI tumour cell line growth inhibition, 48 h

Where “and” joins values, the source holds several entries; their conditions need not be identical. Equal values may be shown once.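 A five-concentration, 48-hour dose response in 96-well plates underlies each endpoint, interpolated linearly between surrounding concentrations. GI50 marks 50% less growth. TGI: concentration producing complete growth inhibition.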

Regarding `COc1cccc(/C=N/[N-]C(N)=O)c1[O-].[Cu+2].[OH3+]`, the results for the GI50 in the assay on HOP-92 NSCLC and in the assay on OVCAR-3 ovarian were 4.77 µM and 10.4 µM, respectively. Moreover, the TGI with HOP-92 NSCLC was 8.9 µM and 15.5 µM; in the assay with NCI-H226 lung it was 31.3 µM; in the assay with OVCAR-3 ovarian, 22.8 µM; in the assay on OVCAR-5 ovarian, 32.6 µM; with RXF 393 renal, 36.2 µM.
Regarding `O=c1c2[nH]cnc2n(-c2ccccc2)c(=S)n1-c1ccccc1`, the TGI with DU-145 prostate, in the assay with MCF7 breast, in the assay on NCI-H226 lung, with NCI-H522 lung, in the assay with NCI/ADR-RES ovarian and in the assay on OVCAR-3 ovarian was > 100 µM throughout. The TGI in the assay on OVCAR-5 ovarian and in the assay with RXF 393 renal was > 100 µM in each case.
As for `NC1CCC2(O)c3ccccc3C2C1` (stereo not drawn), the TGI in the assay on NCI-H226 lung, with NCI-H522 lung and in the assay with RXF 393 renal was > 100 µM in each case.
`CC(=O)CCC1(C(=O)OCC(C)C)CCCC1=O` (stereo not drawn): the TGI in the assay on DU-145 prostate, in the assay with HOP-92 NSCLC, in the assay on MDA-N, with NCI-H226 lung, in the assay on NCI-H522 lung and in the assay with NCI/ADR-RES ovarian was > 100 µM each time. For the same molecule, the TGI with OVCAR-3 ovarian, in the assay with OVCAR-5 ovarian and in the assay on RXF 393 renal was > 100 µM throughout.
On to `CCOC(=O)CNC(=O)c1[nH]cnc1/N=N/N(C)C`, for which the TGI in the assay with NCI-H226 lung, in the assay with NCI-H522 lung, in the assay with OVCAR-3 ovarian and in the assay on OVCAR-5 ovarian was > 100 µM throughout.
For `COc1c(OC2OC(CO)C(O)C(O)C2O)cc2c(c1OC)-c1ccc(OC)c(=O)cc1C(NC(C)=O)CC2` (stereo not drawn), the TGI with HOP-92 NSCLC, in the assay on NCI-H226 lung, in the assay on NCI-H522 lung, with OVCAR-3 ovarian, in the assay with OVCAR-5 ovarian and in the assay with RXF 393 renal was > 100 µM throughout.
In the case of `O=C(/C=C\c1ccccc1)Oc1ccc(/C=C2\CCC/C(=C\c3ccc(OC(=O)/C=C\c4ccccc4)cc3)C2=O)cc1`, the TGI in the assay with DU-145 prostate, with HOP-92 NSCLC, in the assay with MCF7 breast, with MDA-N, in the assay with NCI-H522 lung and in the assay with NCI/ADR-RES ovarian was > 100 µM throughout. Besides, the TGI with OVCAR-3 ovarian and with OVCAR-5 ovarian was > 100 µM in each case.
`O=C(O)CCCc1ccc2c(c1)C(C(=O)O)CC2` (stereo not drawn): the TGI in the assay on DU-145 prostate, in the assay with MCF7 breast, with MDA-N, with NCI-H226 lung, in the assay with NCI-H522 lung and in the assay with NCI/ADR-RES ovarian was > 100 µM throughout. In addition, the TGI with OVCAR-5 ovarian and in the assay with RXF 393 renal was > 100 µM throughout.
Regarding `O=S(Nc1ccccc1)c1ccc(Cl)cc1` (stereo not drawn), the TGI with DU-145 prostate, with MCF7 breast, with MDA-N, in the assay with NCI-H226 lung, in the assay with NCI-H522 lung and in the assay with NCI/ADR-RES ovarian was > 100 µM each time. The TGI with OVCAR-3 ovarian and in the assay on OVCAR-5 ovarian was > 100 µM in each case.
With `Cn1c(CO)ccc1-c1ccc(-c2ccc(CO)[se]2)[se]1`, the TGI in the assay on DU-145 prostate was > 100 µM; in the assay on MCF7 breast, > 40 µM; in the assay on NCI-H226 lung, 2.56 µM; in the assay with NCI-H522 lung it was > 86.3 µM; with NCI/ADR-RES ovarian it was > 100 µM; with OVCAR-3 ovarian, 26.7 µM. Moreover, the TGI with RXF 393 renal was > 100 µM.
In the case of `Nc1c(C(=O)O)c2ccc([N+](=O)[O-])cc2c(=O)n1-c1nc2ccccc2s1`, the TGI in the assay with DU-145 prostate, with MCF7 breast, with MDA-N, in the assay on NCI-H226 lung, in the assay on NCI-H522 lung and in the assay with NCI/ADR-RES ovarian was > 100 µM in each case. Besides, the TGI in the assay on OVCAR-3 ovarian, with OVCAR-5 ovarian and with RXF 393 renal was > 100 µM each time.
In the case of `N#Cc1cc(F)cc(Oc2ccc(S(=O)(=O)C(F)F)c3c2CC(F)(F)[C@H]3O)c1`, the GI50 is 36.1 µM in the assay on DU-145 prostate; 16 µM in the assay on HOP-92 NSCLC; 25.7 µM with MCF7 breast; 31.3 µM with NCI-H226 lung; 19.1 µM in the assay on NCI-H522 lung; 26.4 µM in the assay with NCI/ADR-RES ovarian. The GI50 with OVCAR-3 ovarian was 36.5 µM; in the assay on OVCAR-5 ovarian, 51 µM; in the assay with RXF 393 renal, 21.5 µM. In addition, the TGI with DU-145 prostate is > 100 µM; in the assay with HOP-92 NSCLC, 46.5 µM; with MCF7 breast it was > 100 µM; in the assay with NCI-H226 lung, > 100 µM; with NCI-H522 lung, 88.7 µM; in the assay on NCI/ADR-RES ovarian it was > 100 µM. The TGI in the assay with OVCAR-3 ovarian, in the assay on OVCAR-5 ovarian and with RXF 393 renal was > 100 µM throughout.
In the case of `C/C(CCN(C)C)=N/O`, the TGI in the assay on HOP-92 NSCLC stood at 25.5 µM; in the assay with NCI-H226 lung, 63.9 µM; in the assay with NCI-H522 lung, 2.55 µM; in the assay with OVCAR-3 ovarian, 2.04 µM; with OVCAR-5 ovarian it was 32.9 µM; in the assay with RXF 393 renal, 15.7 µM.
`CCOC(=O)C(Cc1ccc(N=NN(C)C)cc1)NC(=O)CC1c2ccccc2-c2ccccc21` (stereo not drawn): the TGI in the assay on NCI-H226 lung, in the assay with NCI-H522 lung, in the assay with OVCAR-3 ovarian and in the assay on OVCAR-5 ovarian was > 100 µM each time.
For the molecule `Cc1ccc(S(=O)(=O)N/N=c2/sc3ccccc3n2C)cc1`, the TGI with DU-145 prostate, in the assay on HOP-92 NSCLC, in the assay with NCI-H226 lung, in the assay with NCI-H522 lung, in the assay with NCI/ADR-RES ovarian and with OVCAR-5 ovarian was > 100 µM each time. Besides, the TGI in the assay on RXF 393 renal is > 100 µM.
Take `[N-]=[N+]=CC(=O)C1CCN(c2ccccc2)C1=O` (stereo not drawn): the TGI with DU-145 prostate, in the assay with MCF7 breast, in the assay with MDA-N, with NCI-H226 lung, with NCI/ADR-RES ovarian and with OVCAR-3 ovarian was > 10 µM each time. Besides, the TGI in the assay on OVCAR-5 ovarian and in the assay on RXF 393 renal was > 10 µM in each case.
For the molecule `C=CCOC(C)(C)C1=CCC(C)CC1` (stereo not drawn), the TGI in the assay with DU-145 prostate, with HOP-92 NSCLC, in the assay with MCF7 breast, in the assay on MDA-N, in the assay on NCI-H522 lung and in the assay on OVCAR-3 ovarian was > 100 µM in each case. Besides, the TGI in the assay on OVCAR-5 ovarian and with RXF 393 renal was > 100 µM throughout.
